Test results taken from ChEMBL document CHEMBL1157891, “Methylene amine substituted arylindenopyrimidines as potent adenosine A(2A)/A(1) antagonists” (Bioorg Med Chem Lett, 2010).
pKi: −log10 of the molar value. The source made the active and inactive calls. The rule behind the calls is not given here.

Assays:
Adenosine receptor A1 = target: T1, Adenosine receptor A1 (Homo sapiens, UniProt P30542); experiment: Antagonist activity at adenosine A1 receptor; format: functional
T1 sequence (P30542 whole entry): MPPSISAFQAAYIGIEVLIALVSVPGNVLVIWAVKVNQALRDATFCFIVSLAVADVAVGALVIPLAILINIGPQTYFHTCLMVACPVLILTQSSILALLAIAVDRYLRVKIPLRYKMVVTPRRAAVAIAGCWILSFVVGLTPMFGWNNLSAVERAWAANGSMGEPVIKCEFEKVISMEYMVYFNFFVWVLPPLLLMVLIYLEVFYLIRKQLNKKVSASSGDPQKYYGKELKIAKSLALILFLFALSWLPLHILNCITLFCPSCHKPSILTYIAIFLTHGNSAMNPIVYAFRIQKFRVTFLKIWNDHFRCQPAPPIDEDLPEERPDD

Adenosine receptor A2a = Adenosine receptor A2a (Homo sapiens, UniProt P29274); experiment: Antagonist activity at adenosine A2A receptor; format: functional
Mus musculus [1] = experiment: Inhibition of haloperidol-induced catalepsy in mouse at 10 mg/kg, po; format: functional, organism-based; set-up: dose 10 mg/kg
Mus musculus [2] = experiment: Inhibition of haloperidol-induced catalepsy in po dosed mouse; format: functional
[3] = Mutagenic activity in Salmonella Typhimurium by Ames assay; format: toxicity; conditions: salmonella enterica subsp. enterica serovar typhimurium

Adenosine receptor A2a, sequence (P29274 whole entry): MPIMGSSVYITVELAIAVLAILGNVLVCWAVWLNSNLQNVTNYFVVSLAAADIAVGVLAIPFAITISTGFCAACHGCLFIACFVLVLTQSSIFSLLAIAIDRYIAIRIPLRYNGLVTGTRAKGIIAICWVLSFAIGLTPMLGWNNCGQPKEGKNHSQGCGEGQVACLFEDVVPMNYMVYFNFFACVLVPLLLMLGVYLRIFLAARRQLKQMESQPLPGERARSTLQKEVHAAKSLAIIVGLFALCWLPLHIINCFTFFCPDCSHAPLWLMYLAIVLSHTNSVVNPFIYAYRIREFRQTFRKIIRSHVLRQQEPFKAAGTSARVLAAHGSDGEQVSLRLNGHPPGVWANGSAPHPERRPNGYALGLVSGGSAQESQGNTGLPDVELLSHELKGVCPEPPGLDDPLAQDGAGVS

| pKi (Adenosine receptor A1) | pKi (Adenosine receptor A2a) | Structure (SMILES) | inhibition (Mus musculus [1]) | ED50 (Mus musculus [2]) | Activity [3] |
| --- | --- | --- | --- | --- | --- |
| 6.97 | 7.74 | CCN(CC)Cc1cccc2c1-c1nc(N)nc(-c3ccccc3)c1C2=O | inactive | – | – |
| – | 9.30 | Nc1nc(-c2nccs2)c2c(n1)-c1ccccc1C2=O | inactive | – | – |
| 8.96 | – | Nc1nc(-c2ccccc2)c2c(n1)-c1ccccc1C2=O | – | 8 mg/kg | Non-toxic |
| 8.60 | 8.80 | COc1cccc(-c2nc(N)nc3c2C(=O)c2ccccc2-3)c1 | inactive | – | Non-toxic |
| 9.30 | 9.70 | Nc1nc(-c2ccc(Cl)o2)c2c(n1)-c1ccccc1C2=O | inactive | – | – |
| 7.70 | 8.11 | CN(C)CCN(C)Cc1ccc2c(c1)-c1nc(N)nc(-c3ccccc3)c1C2=O | – | – | – |
| 9.40 | – | Nc1nc(-c2ccco2)c2c(n1)-c1ccccc1C2=O | – | 5 mg/kg | Toxic |
| 7.40 | 7.98 | CN(C)CCN(C)c1ccc(-c2nc(N)nc3c2C(=O)c2ccccc2-3)o1 | – | 17.1 mg/kg | Non-toxic |

Second part, the compound before the results:

| Structure (SMILES) | pKi (Adenosine receptor A1) | pKi (Adenosine receptor A2a) | inhibition (Mus musculus [1]) | ED50 (Mus musculus [2]) | Activity [3] |
| --- | --- | --- | --- | --- | --- |
| Nc1nc(-c2ccc(F)cc2)c2c(n1)-c1cc(CN3CCCC3)ccc1C2=O | 7.18 | 7.89 | – | 1.6 mg/kg | – |
| COc1ccccc1-c1nc(N)nc2c1C(=O)c1ccccc1-2 | – | – | inactive | – | Non-toxic |
| Nc1nc(-c2ccccc2)c2c(n1)-c1c(CN3CCCCC3)cccc1C2=O | 7.39 | 7.84 | – | 5 mg/kg | – |
| CN1CCN(Cc2ccc3c(c2)-c2nc(N)nc(-c4ccc(F)cc4)c2C3=O)CC1 | 6.65 | 7.53 | – | 3.5 mg/kg | – |
| Nc1nc(-c2ccccc2)c2c(n1)-c1c(CN3CCOCC3)cccc1C2=O | 7.48 | 8.48 | – | 5.6 mg/kg | – |
| CN1CCN(Cc2cccc3c2-c2nc(N)nc(-c4ccccc4)c2C3=O)CC1 | 7.03 | 7.95 | – | 7.8 mg/kg | – |
| Nc1nc(-c2ccccc2)c2c(n1)-c1c(CN3CCCC3)cccc1C2=O | 6.94 | 8.60 | – | 3.8 mg/kg | – |
| CC(=O)N1CCN(Cc2cccc3c2-c2nc(N)nc(-c4ccccc4)c2C3=O)CC1 | 7.47 | 8.10 | – | 10.7 mg/kg | – |
| Nc1nc(-c2ccc(Cl)cc2)c2c(n1)-c1ccccc1C2=O | – | – | inactive | – | Non-toxic |
| Nc1nc(-c2ccc(F)cc2)c2c(n1)-c1c(CN3CCCC3)cccc1C2=O | 7.07 | 8.44 | – | 0.8 mg/kg | – |
| CC1CCC(C)N1Cc1cccc2c1-c1nc(N)nc(-c3ccccc3)c1C2=O (stereo unspecified) | 6.85 | 7.95 | inactive | – | – |
| Nc1nc(-c2ccccc2)c2c(n1)-c1c(CN3CCCCCC3)cccc1C2=O | 7.02 | 8.07 | inactive | – | – |
| CN(C)CCN(C)Cc1cccc2c1-c1nc(N)nc(-c3ccccc3)c1C2=O | 6.92 | 7.40 | inactive | – | – |
| Nc1nc(-c2ccc(F)cc2)c2c(n1)-c1c(CN3CCOCC3)cccc1C2=O | 6.81 | 8.42 | – | 1.3 mg/kg | – |
| Nc1nc(-c2ccncc2)c2c(n1)-c1ccccc1C2=O | – | – | inactive | – | – |
| Nc1nc(-c2ccc(F)cc2)c2c(n1)-c1cc(CN3CCCCC3)ccc1C2=O | 7.02 | 8.00 | – | 0.6 mg/kg | – |
| N#Cc1cccc(-c2nc(N)nc3c2C(=O)c2cccc(CN4CCOCC4)c2-3)c1 | 7.12 | 8.27 | – | 1.7 mg/kg | – |
